Legend:
Format in all cases: cell-based, human
[1] = system: CD44s, CD44v10, S1P1 and S1P3 receptors in lipid rafts; assay: CD44 isoform / S1P receptor recruitment and association in lipid raft (CEM) fractions; settings: for CD44 isoform association with S1P receptors in lipid rafts: 100 nM HA, immunoprecipitation from lipid raft fractions
Procedure: Lipid Raft Isolation—Caveolin-enriched microdomain known as lipid rafts were isolated from human lung EC as described (Singleton and Bourguignon, 2004; Singleton et al., 2005). Materials insoluble in Triton X-100-insoluble were mixed with 0.6 ml of cold 60% Optiprep™ and then overlaid with 0.6 ml of 40%-20% Optiprep™. The resulting gradients were then centrifuged (35,000 rpm) in SW60 rotor for 12 h at 4° C. and different fractions were collected and analyzed. In some cases, different fractions were analyzed for total cholesterol content using a cholesterol assay kit (Amplex Red™, Invitrogen (Molecular Probes), Eugene, Oreg.).
Immunoprecipitation and Immunoblotting—Cellular materials associated within the 20% Optiprep™ fractions (lipid raft fraction) were incubated with IP buffer A (50 mM HEPES (pH 7.5), 150 mM NaCl, 20 mM MgCl2, 1% Nonidet P-40 (NP-40), 0.4 mM Na3VO4, 40 mM NaF, 50 μM okadaic acid, 0.2 mM phenylmethylsulfonyl fluoride, 1:250 dilution of Calbiochem protease inhibitor mixture 3) or IP buffer B (50 mM HEPES (pH 7.5), 150 mM NaCl, 20 mM MgCl2, 1% Triton X-100, 0.1% SDS, 0.4 mM Na3VO4, 40 mM NaF, 50 μM okadaic acid, 0.2 mM phenylmethylsulfonyl fluoride, 1:250 dilution of Calbiochem protease inhibitor mixture 3) as indicated. The samples were then immunoprecipitated with anti-S1P1 receptor or anti-S1P3 receptor IgG followed by SDS-PAGE in 4-15% polyacrylamide gels, and transfer onto Immobilon™ membranes. Development occurred using specific primary and secondary antibodies. Enhanced chemiluminescence (Amersham Biosciences) for visualization of immunoreactive bands then took place.
Determination of Complex Formation between S1P1 Receptor/CD44s and S1P3 Receptor/CD44v10—EC monolayers were serum-starved for one hour, then treated with High or Low MW HA (100 nM) (5-30 min.) and solubilized in IP buffer A (see above). Following immunoprecipitation with either rabbit anti-S1P1 receptor or mouse anti-S1P3 receptor antibody, the samples were subjected to SDS-PAGE in 4-15% polyacrylamide gels and transfer onto Immobilon™ membranes (Millipore Corp., Bedford, Mass.). Nonspecific sites were then blocked with 5% bovine serum albumin, and the blots were then incubated with either rat anti-CD44 (IM-7, common domain) antibody, rabbit anti-S1P1 antibody or mouse anti-S1P3 antibody followed by incubation with horseradish peroxidase (HRP)-labeled goat anti-rabbit, goat anti-mouse or goat anti-rat IgG. Enhanced chemiluminescence (Amersham Biosciences) for visualization of immunoreactive bands then took place.

HPMVEC [2] = assay: EC migration (transwell); settings: 100 nM HA with or without 100 nM VEGF, or siRNA 48 hours then VEGF; 18 hours
Procedure: (§1) Determination of the role of HMW-HA/CD44 interactions in regulating hyaluronidase activity and angiogenesis in vitro. Human pulmonary microvascular EC (HPMVEC) (Cambrex), grown in EBM-2 complete medium (Cambrex) at 37° C. in a humidified atmosphere of 5% CO2, 95% air, with passages 6-10 used for experimentation was treated with or without 100 nM HMW-HA and/or 100 nM VEGF in the presence or absence of CD44 isoform-specific blocking antibodies (EMD Biosciences), siRNA (scramble, CD44, Hyal-1, Hyal-2, Hyal-3 or Hyal-4) and the potent hyaluronidase inhibitor, L-ascorbic acid 6-hexadecanoate (Botzki et al., 2004) (Sigma). […] Treated EC will either be analyzed for protein expression, hyaluronidase activity or VEGF-induced proliferation, migration or tube formation. […] Cells from the upper and lower chamber were quantitated using the CellTiter96™ MTS assay (Promega, San Luis Obispo, Calif.) and read at 492 nm. % migration was defined as the # of cells in the lower chamber […] the number of cells in both the upper and lower chamber. Each assay was set up in triplicate, repeated at least five times and analyzed statistically by Student's t test (with statistical significance set at P<0.05). […] The in vitro cell proliferation assay was analyzed by measuring increases in cell number using the CellTiter96™ MTS assay (Promega, San Luis Obispo, Calif.) and read at 492 nm. […]

HPMVEC [3] = assay: EC proliferation (CellTiter96 MTS); settings: 100 nM HA with or without 100 nM VEGF, or siRNA 48 hours then VEGF; 24 h
Procedure: as §1

Substance | recruitment of CD44s to the lipid raft fraction ([1]; 100 nM HA, 5, 15 or 30 min) | CD44 isoform association with S1P receptors in lipid rafts [1] | EC migration (% Migration) (HPMVEC [2]) | EC proliferation (% Proliferation) (HPMVEC [3]) | recruitment of CD44v10 to the lipid raft fraction ([1]; 100 nM HA, 5, 15 or 30 min)
hyaluronan [HMW-HA] | rapidly (5 min.) recruit CD44s to the lipid raft fraction | induced CD44s association in lipid rafts with S1P1 | inhibited VEGF-induced hyaluronidase expression, EC proliferation (A) and migration (B) | inhibited VEGF-induced hyaluronidase expression, EC proliferation (A) and migration (B) | –
hyaluronan [LMW-HA, reference compound] | rapidly (5 min.) recruit CD44s to the lipid raft fraction | induced an initial CD44s association with S1P1 which was followed by CD44v10 association with S1P3 receptor in lipid raft fractions | promotes EC proliferation and migration | promotes EC proliferation and migration | robust but delayed recruitment of CD44v10 (after 15 min.)
